Source: US11965039B2, “Compstatin analogues and their medical uses” (priority 2018, dated 2024)

System: classical complement pathway
Assay: In vitro haemolysis assay (inhibition of classical complement pathway)
Assay type: cell-based, human
Details: human serum, sensitized sheep red blood cells; Table 3, given as upper bounds; read-out: IC50, inhibition of hemolysis
Experimental: The in vitro effect of the compounds of the present invention was assessed by measuring their inhibitory effect of the classical complement pathway in a haemolysis assay. Briefly, compounds of the present invention and reference compounds were dissolved in DMSO and diluted in Tris/Casein Assay Buffer (10 mM Tris, 145 mM NaCl, 0.5 mM MgCl2, 0.15 mM CaCl2), and 0.1% W/V Casein, adjusted to pH 7.4) as 9-point serial dilutions in a 96 well plate. Sensitized sheep red blood cells (RBC) coated with rabbit anti-sheep erythrocyte antiserum (Complement Technology, Inc., TX, USA) were washed in Tris/Casein Assay Buffer. […] from each well of diluted compound was added to a 96-well plate containing 50 μL diluted human serum (Complement Technology, Inc., TX, USA) and incubated for 15 minutes at room temperature. The serum dilution factor was optimized for every serum batch to obtain 70-90% of maximal haemolysis using the protocol. Then 50 μL sensitized sheep red blood cells were added to all wells (10^7 per well). After 30 minutes of incubation at 37 QC with gentle agitation, the reaction was stopped by addition of 50 μL Tris STOP Buffer per well (10 mM EDTA, 10 mM Tris, 145 mM NaCl adjusted to pH 7.4). The RBCs were then removed by centrifugation and the resulting supernatant measured for hemolysis by absorbance at 405 nm. […]

**Q.** For “Ac-IC(1)IWQDWGEHRC(1)TEG-K((15-carboxy-pentadecanoyl)-[(Piperazine-1-yl)-acetyl][Peg3][Peg3])-NH2 [Compound 95]”, which IC50 is on record?
**A.** < 500 nM
